Common to all, as to format: in vitro ADME, human
Data set [1] can be described thus: Transdermal absorption test using cosmetics component (Franz diffusion cell, tape stripping, HPLC). Particulars: for Penetration amount into epidermis/dermis (%) / Penetration amount into stratum corneum (%) / Wiping + first layer (%): 2 mg/cm^2, 6 hours; for Penetration amount into epidermis/dermis (%) / Penetration amount into stratum corneum (%) / Wiping + first layer (%) / Passing amount (%): ratio to 100 as total retrieved amount; for Passing amount (%): receptor liquid, 6 hours; for skin penetration property into the skin: combination of surfactin and a phospholipid in comparison with the aqueous solution. The protocol: The skin penetration properties of niacinamide and arbutin, which are often mixed in cosmetics as active ingredients, were evaluated by a similar test to Example 1. A circle human skin sample having a thickness of about 700 μm was attached to a test cell of an In vitro transdermal penetration test device (“TransView C12” manufactured by CosMED). The test cell is an open system Franz diffusion cell having an effective diameter of 2.0 cm, an area of 3.14 cm- and a receptor liquid volume of 2.4 mL. An electrical resistance value was measured to confirm that there were not any problems with the sample. Then, the test cell was filled with a phosphate buffer solution of pH 7.0 as a receptor liquid. The phosphate buffer solution of pH 7.0 containing 2 mass % surfactin sodium salt (SF), 1 mass % natural lecithin and 5 mass % active ingredient was applied to the skin sample at a rate of 2 mg/cm^2, and the skin sample was installed at the test device of which temperature was maintained at 32° C. to start the test. A phosphate buffer solution containing 5 mass % active ingredient was concurrently subjected to the test as control.
(§1) The skin sample was taken out of the test cell 6 hours after the start of the test, and the surface was wiped using cotton. Then, the first round of tape stripping, hereinafter referred to as “TS”, was conducted using a dedicated tape, hereinafter referred to as “tape”. Specifically, the tape was attached to the skin sample and then peeled. A mixed solvent (15 mL) of ethanol:water=1:1 by v/v was added thereto, and ultrasonic wave was applied to the mixture for 1 hour for extraction. The obtained liquid was retrieved, and the above-described mixed solvent was added thereto to adjust the total amount to 20 mL as an analytic sample of “wiping+first layer”.
(§2) Then, the second or later round of TS were conducted. The number of the total times of TS was 15 at a maximum, and the number of times was adjusted depending on the condition of the skin sample surface. The tapes of second or later round were combined, and the extraction using aqueous ethanol and the total amount adjustment were conducted in a similar condition to the above to prepare an analytic sample of “penetration amount into stratum corneum”.
(§3) In addition, the remaining skin sample was finely cut and divided into two tubes for crushing. Water (0.5 mL) was added into each tube, and the skin was crushed using a crushing machine for 20 minutes. The liquid containing the crushed skin was retrieved from two tubes into one centrifuge test. Then, ethanol (12 mL) was added thereto, and the mixture was efficiently stirred and centrifuged to obtain a supernatant. Water was added to the obtained supernatant to adjust the total amount to 20 mL to prepare an analytic sample of “penetration amount into epidermis/dermis”.
(§4) The receptor liquid was also retrieved, and water was added thereto to adjust the total amount to 20 mL to prepare an analytic sample of “passing amount”. The amounts of each active ingredient in each obtained solution were measured by HPLC.
The amounts of the active ingredients retrieved from each sample of the above-described “wiping+first layer”, “penetration amount into stratum corneum”, “penetration amount into epidermis/dermis” are shown in Table 1 as ratios to 100 as the total amount retrieved from 4 samples.

A short description of data set [2]: Effect of concentrations of phospholipid and surfactin on penetration of active ingredient (transdermal absorption test). Particulars: 5 mass % niacinamide. On the procedure:
A circle human skin sample having a thickness of about 700 μm was attached to a test cell of an In vitro transdermal penetration test device (“TransView C12” manufactured by CosMED). The test cell is an open system Franz diffusion cell having an effective diameter of 2.0 cm, an area of 3.14 cm- and a receptor liquid volume of 2.4 mL. An electrical resistance value was measured to confirm that there were not any problems with the sample. Then, the test cell was filled with a phosphate buffer solution of pH 7.0 as a receptor liquid. The phosphate buffer solution of pH 7.0 containing 2 mass % surfactin sodium salt (SF), 1 mass % natural lecithin and 5 mass % active ingredient was applied to the skin sample at a rate of 2 mg/cm^2, and the skin sample was installed at the test device of which temperature was maintained at 32° C. to start the test.
as §1, §2, §3, §4
The condition of Example 2 was used as a benchmark of the concentrations of a phospholipid and surfactin in the samples applied to the skin, and the concentration, the ½ concentration thereof and the 1/10 concentration thereof were tested. All of the concentrations of niacinamide in the samples were adjusted to 5 mass %. The ratio of the active ingredient amounts in each sample to 100 of the total retrieved amount are shown.

Data set [3] in a line: Transdermal absorption test of water-soluble fluorescent dye (Franz diffusion cell, fluorescence microscopy of frozen section). The note with it: 6 hours. The protocol:
A circle human skin sample having a thickness of about 700 μm was attached to a test cell of an In vitro transdermal penetration test device (“TransView C12” manufactured by CosMED). The test cell was an open system Franz diffusion cell having an effective diameter of 1.7 cm, an area of 2.27 cm^2 and a receptor liquid volume of 5.75 mL. An electrical resistance value was measured to confirm that there was not any problems with the sample. Then, the test cell was filled with a phosphate buffer solution of pH 7.0 as a receptor liquid. The phosphate buffer solution of pH 7.01 (500 μL) containing 1.5 mass % surfactin sodium salt (SF), 1 mass % phospholipid (DMPC: 1,2-dimyristoyl-sn-glycero-3-phosphocholine) and 10 mM water-soluble fluorescent dye (calcein) was applied to the skin sample, and the skin sample was installed at the test device of which temperature was maintained at 32° ° C. to start the test.
In addition, similar tests were conducted for comparison using a PBS solution of pH 7.09 containing 10 mM water-soluble fluorescent dye, a PBS solution of pH 6.99 containing 10 mM water-soluble fluorescent dye+1.5 mass % SF, and a PBS solution of pH 7.08 containing 10 mM water-soluble fluorescent dye+1 mass % phospholipid.
The skin sample was cut 6 hours after the start of the test, embedded in O. C. T. Compound, cooled using cooled acetone to be frozen, and sliced to prepare a frozen section. The cut surface was observed using a fluorescence microscope. Separately, the used human skin sample was dyed using hematoxylin-eosin and observed under magnification.
The result of the human skin sample is shown in FIG. 1, the result of the 10 mM water-soluble fluorescent dye PBS solution is shown in FIG. 2A, the result of the 10 mM water-soluble fluorescent dye+1.5 mass % SF PBS solution is shown in FIG. 2B, the result of the 10 mM water-soluble fluorescent dye+1 mass % phospholipid PBS solution is shown in FIG. 2C, and the result of the 10 mM water-soluble fluorescent dye+1 mass % phospholipid+1.5 mass % SF PBS solution is shown in FIG. 2D.

The mark [4] stands for this setting: Control: phosphate buffer solution containing 5 mass % active ingredient, 32 °C.
Where [5] appears, read: Control: phosphate buffer solution containing 5 mass % active ingredient.
The mark [6] stands for this setting: Example: 2 mass % SF + 1 mass % natural lecithin + 5 mass % active ingredient, phosphate buffer pH 7.0.
Setting [7] is: Example: 2 mass % surfactin sodium salt (SF) + 1 mass % natural lecithin + 5 mass % active ingredient, phosphate buffer pH 7.0.
Setting [8] is: 1/10 conc. of phospholipid and surfactin of Example 2.
Setting [9] is: Control, ratio to 100 of total retrieved amount.
The mark [10] stands for this setting: Example: phospholipid and surfactin at the concentration of Example 2.
Setting [11] is: ½ conc. of phospholipid and surfactin of Example 2.

Consider `OC[C@H]1O[C@@H](Oc2ccc(O)cc2)[C@H](O)[C@@H](O)[C@@H]1O` [Arbutin, arbutin], for which, in data set [1] (setting [4]), the “Penetration amount into epidermis/dermis (%)” value was 0%, the “Penetration amount into stratum corneum (%)” value came out at 5% and the “Wiping + first layer (%)” value came to 95%. In addition, the “Passing amount (%)” value in data set [1] (setting [5]) was determined as 0%. In data set [1] (setting [6]), the “Penetration amount into epidermis/dermis (%)” value came to 23%, the “Penetration amount into stratum corneum (%)” value turned out to be 25% and the “Passing amount (%)” value is 0%. Moreover, the “Wiping + first layer (%)” value in data set [1] (setting [7]) is 52%. The “skin penetration property into the skin” value in data set [1] is on record as “remarkably improved”.

Regarding `NC(=O)c1cccnc1` [Niacinamide, niacinamide], the “Passing amount (%)” value was 15% in data set [2] (setting [8]); 15% in data set [2] (setting [9]); 39% in data set [2] (setting [10]); 15% in data set [2] (setting [11]); 0% in data set [1] (setting [5]); 0% in data set [1] (setting [6]). Also, the “Penetration amount into epidermis/dermis (%)” value was determined as 18% in data set [2] (setting [8]); 8% in data set [2] (setting [9]); 18% in data set [2] (setting [10]); 18% in data set [2] (setting [11]); 5% in data set [1] (setting [4]); 37% in data set [1] (setting [6]). Also, the “Penetration amount into stratum corneum (%)” value in data set [2] (setting [8]) is listed as 26%; in data set [2] (setting [9]) it was 11%; in data set [2] (setting [10]), 23%; in data set [2] (setting [11]), 23%; in data set [1] (setting [4]), 7%; in data set [1] (setting [6]) it was 39%. Besides, the “Wiping + first layer (%)” value in data set [2] (setting [8]) is listed as 41%; in data set [2] (setting [9]), 65%; in data set [2] (setting [10]), 19%; in data set [2] (setting [11]) it was 44%; in data set [1] (setting [4]), 89%; in data set [1] (setting [7]), 24%. In data set [1], the “skin penetration property into the skin” value was “remarkably improved”.

For `O=C(O)CN(CC(=O)O)Cc1cc2c(cc1O)Oc1cc(O)c(CN(CC(=O)O)CC(=O)O)cc1C21OC(=O)c2ccccc21` [water-soluble fluorescent dye, calcein], the “skin penetration of the water-soluble fluorescent dye (fluorescence microscope, cut surface)” value in data set [3] (PBS solution pH 6.99, 10 mM dye + 1.5 mass % SF (surfactin sodium salt), FIG. 2B) is “reached deeper epidermal tissue than the stratum corneum but mainly remained in the stratum corneum”; in data set [3] (PBS solution pH 7.08, 10 mM dye + 1 mass % phospholipid (DMPC), FIG. 2C), “reached deeper epidermal tissue than the stratum corneum but mainly remained in the stratum corneum”; in data set [3] (PBS solution pH 7.09, 10 mM dye only, 32 °C, FIG. 2A), “remained on the surface and could not infiltrate the deeper area than the stratum corneum”; in data set [3] (phosphate buffer pH 7.01, 10 mM dye + 1 mass % phospholipid (DMPC) + 1.5 mass % SF, FIG. 2D), “clearly infiltrated the epidermal tissue and also reached the dermis”.

The record behind these values is patent US20240207159A1, “SKIN PENETRATION IMPROVER” (KANEKA CORPORATION, priority 2021, published 2024).
